We go through five molecules from ChEMBL document CHEMBL1201862, “PubChem BioAssay data set” (2004).

Active and inactive are the calls of the source.

Test [1] is described as follows: CCR5-tropic HIV-1 fusion blockers – cell-based, CCR5-tropic Env, dose response (AID 2279). Format: functional.
Test [2] in a line: viability of PTEN-deleted HCT116 cells – cell-based, HCT116 PTEN knockout, dose response (AID 1047).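 Also: HCT116 colon tumor cells with PTEN knocked out; cells exposed to compound for 60 hours before readout; potency for loss of cell viability measured by luminescence.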 Format: functional.
The nature of test [3]: viability of HCT116 lacking mutant beta-catenin – cell-based, human colon tumor, dose response (AID 1045).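 Also: HCT116 colon tumor cells with beta catenin knocked out; cells exposed to compound for 60 hours.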 The format is functional.
The nature of test [4]: Luminescence Cell-Based Dose Retest to Confirm Inhibitors of Cancer Stem Cells. [Related pubchem assays (depositor defined):AID2717, AID2721]. The format is functional. As to conditions: Homo sapiens.
Test [5] has as its target T1, Bcl-2-like protein 10 (Homo sapiens, UniProt Q9HD36).
T1 sequence (Q9HD36 whole entry): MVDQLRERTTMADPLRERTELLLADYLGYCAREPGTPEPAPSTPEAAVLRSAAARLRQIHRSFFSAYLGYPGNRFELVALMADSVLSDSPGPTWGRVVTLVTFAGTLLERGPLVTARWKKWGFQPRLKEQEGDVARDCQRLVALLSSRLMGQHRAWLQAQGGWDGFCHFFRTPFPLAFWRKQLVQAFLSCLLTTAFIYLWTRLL
Nature of the test: Concentration-response of Bcl-B inhibitors by biochemical FP with TR3 (AID 1243). The format is functional.

The target in test [6] is Peroxisome proliferator-activated receptor gamma/Nuclear receptor coactivator 2 (Homo sapiens, UniProt P37231). The format is functional.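 Also: agonist potency for raising coactivator recruitment to the receptor.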
Chain of Peroxisome proliferator-activated receptor gamma/Nuclear receptor coactivator 2 (P37231 whole entry): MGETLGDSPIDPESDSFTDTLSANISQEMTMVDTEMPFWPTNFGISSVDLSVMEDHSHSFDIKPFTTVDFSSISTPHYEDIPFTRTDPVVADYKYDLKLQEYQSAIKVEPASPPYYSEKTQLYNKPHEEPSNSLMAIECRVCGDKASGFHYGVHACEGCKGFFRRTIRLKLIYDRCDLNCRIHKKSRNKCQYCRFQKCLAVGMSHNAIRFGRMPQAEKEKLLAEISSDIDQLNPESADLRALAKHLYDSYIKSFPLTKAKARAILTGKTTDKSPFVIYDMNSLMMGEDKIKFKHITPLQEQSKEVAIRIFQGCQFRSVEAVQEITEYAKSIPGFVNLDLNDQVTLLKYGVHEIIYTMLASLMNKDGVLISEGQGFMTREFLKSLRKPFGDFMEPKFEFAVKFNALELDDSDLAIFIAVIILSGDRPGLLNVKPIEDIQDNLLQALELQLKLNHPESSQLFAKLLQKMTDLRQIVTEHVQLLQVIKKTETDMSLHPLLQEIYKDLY
Chain of Peroxisome proliferator-activated receptor gamma/Nuclear receptor coactivator 2 (Q15596 whole entry, further chain): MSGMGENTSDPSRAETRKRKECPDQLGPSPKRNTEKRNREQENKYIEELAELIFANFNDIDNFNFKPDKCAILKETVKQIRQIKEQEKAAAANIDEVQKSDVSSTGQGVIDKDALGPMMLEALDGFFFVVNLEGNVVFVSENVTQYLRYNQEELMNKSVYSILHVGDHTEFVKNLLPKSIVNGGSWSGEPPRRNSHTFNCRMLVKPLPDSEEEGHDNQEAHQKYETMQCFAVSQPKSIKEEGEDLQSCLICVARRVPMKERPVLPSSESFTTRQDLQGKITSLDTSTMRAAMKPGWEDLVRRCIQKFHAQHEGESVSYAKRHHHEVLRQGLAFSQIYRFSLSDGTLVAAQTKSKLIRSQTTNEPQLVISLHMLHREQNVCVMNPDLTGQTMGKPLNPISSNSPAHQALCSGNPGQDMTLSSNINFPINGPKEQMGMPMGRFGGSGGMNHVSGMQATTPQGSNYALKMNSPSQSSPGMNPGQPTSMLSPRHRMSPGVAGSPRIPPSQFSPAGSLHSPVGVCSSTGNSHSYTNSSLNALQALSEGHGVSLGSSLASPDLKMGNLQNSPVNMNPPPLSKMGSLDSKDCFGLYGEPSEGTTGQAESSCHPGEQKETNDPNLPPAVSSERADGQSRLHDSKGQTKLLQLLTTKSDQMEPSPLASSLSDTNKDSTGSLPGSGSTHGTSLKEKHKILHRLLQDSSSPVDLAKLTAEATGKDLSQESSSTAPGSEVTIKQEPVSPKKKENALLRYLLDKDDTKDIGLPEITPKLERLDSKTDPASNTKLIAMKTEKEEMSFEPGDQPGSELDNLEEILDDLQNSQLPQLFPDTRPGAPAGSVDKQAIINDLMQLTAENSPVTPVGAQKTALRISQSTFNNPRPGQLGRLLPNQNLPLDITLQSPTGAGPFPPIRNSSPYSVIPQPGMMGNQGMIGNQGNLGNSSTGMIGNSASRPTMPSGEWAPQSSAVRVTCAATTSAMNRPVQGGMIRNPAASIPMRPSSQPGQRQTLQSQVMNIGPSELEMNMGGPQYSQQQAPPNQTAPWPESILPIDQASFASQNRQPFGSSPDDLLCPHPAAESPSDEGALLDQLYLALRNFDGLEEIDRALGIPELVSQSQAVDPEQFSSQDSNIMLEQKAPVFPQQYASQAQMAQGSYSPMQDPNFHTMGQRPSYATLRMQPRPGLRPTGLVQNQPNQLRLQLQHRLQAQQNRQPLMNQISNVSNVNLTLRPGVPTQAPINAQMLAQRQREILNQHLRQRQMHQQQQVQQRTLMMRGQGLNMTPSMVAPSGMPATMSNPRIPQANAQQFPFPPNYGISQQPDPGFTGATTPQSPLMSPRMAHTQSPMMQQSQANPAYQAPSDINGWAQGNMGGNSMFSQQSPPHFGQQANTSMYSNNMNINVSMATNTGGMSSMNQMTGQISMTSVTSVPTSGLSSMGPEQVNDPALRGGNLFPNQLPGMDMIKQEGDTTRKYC
Test [7] concerns the target Peroxisome proliferator-activated receptor gamma/Nuclear receptor coactivator 1 (Homo sapiens, UniProt P37231). The format is functional.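 Also: agonist potency as compounds enhance coactivator SRC-1 recruitment to PPARgamma.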
In test [8] the target is Peroxisome proliferator-activated receptor gamma/Nuclear receptor coactivator 3 (Homo sapiens, UniProt P37231). The format is functional.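 Also: agonist potency for raising coactivator recruitment to the receptor.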
Test [9] concerns the target Mucolipin-3 (Homo sapiens, UniProt Q8TDD5). Nature of the test: Dose response cell-based high-throughput screening assay for agonists of the transient receptor potential channel ML3 (TRPML3). [Related pubchem assays: 1526, 1424, 1448 ]. Format: functional.
In test [10] the target is Ion channel NompC (Danio rerio, UniProt Q7T1G6). Description: Fluorescence counterscreen assay for TRPML3 agonists: dose response cell-based high-throughput screening assay to identify agonists of the transient receptor potential channel N1 (TRPN1). [Related pubchem assays: 1526, 1424, 1448 ]. The format is functional.
Chain of Ion channel NompC (Q7T1G6 whole entry): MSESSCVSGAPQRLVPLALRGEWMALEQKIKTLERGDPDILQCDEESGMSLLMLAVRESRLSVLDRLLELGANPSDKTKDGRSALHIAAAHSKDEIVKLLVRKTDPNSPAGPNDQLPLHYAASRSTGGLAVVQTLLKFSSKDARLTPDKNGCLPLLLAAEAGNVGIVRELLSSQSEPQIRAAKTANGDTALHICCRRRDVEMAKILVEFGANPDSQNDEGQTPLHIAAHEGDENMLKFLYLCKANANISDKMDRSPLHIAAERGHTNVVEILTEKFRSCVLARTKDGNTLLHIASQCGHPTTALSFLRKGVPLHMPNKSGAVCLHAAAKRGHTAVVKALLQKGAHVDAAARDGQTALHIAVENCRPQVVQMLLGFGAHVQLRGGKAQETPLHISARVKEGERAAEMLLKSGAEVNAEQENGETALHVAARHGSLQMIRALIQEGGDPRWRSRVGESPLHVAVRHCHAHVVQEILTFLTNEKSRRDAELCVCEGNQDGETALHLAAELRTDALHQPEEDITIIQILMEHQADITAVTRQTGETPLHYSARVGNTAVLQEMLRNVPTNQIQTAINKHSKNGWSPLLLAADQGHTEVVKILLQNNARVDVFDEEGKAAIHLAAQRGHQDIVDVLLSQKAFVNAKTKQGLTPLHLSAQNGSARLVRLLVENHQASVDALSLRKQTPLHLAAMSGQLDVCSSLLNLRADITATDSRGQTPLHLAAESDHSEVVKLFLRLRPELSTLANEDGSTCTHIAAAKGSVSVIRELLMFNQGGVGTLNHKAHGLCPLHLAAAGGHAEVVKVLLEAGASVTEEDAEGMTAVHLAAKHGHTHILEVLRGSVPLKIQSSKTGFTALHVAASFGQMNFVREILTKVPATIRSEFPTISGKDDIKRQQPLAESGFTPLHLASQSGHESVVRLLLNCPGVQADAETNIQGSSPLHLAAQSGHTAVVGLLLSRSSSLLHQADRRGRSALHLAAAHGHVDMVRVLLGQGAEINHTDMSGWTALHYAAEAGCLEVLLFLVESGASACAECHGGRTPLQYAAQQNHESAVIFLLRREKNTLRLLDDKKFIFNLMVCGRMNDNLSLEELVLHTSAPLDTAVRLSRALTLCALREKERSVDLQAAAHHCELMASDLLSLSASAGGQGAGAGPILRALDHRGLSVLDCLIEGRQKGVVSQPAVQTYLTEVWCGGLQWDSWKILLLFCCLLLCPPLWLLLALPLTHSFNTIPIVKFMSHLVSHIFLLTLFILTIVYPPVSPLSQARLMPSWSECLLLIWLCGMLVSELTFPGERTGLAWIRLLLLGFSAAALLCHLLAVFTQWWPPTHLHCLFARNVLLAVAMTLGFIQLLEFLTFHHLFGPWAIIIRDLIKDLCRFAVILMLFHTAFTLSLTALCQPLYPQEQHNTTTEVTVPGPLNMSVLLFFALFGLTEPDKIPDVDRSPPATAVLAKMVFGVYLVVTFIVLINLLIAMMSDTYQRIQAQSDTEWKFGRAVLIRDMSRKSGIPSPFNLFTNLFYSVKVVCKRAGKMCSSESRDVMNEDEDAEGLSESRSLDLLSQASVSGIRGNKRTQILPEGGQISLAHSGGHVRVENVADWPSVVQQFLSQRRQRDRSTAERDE
Test [11] deals with T2, Short transient receptor potential channel 4 (Mus musculus, UniProt Q9QUQ5).
T2 sequence (Q9QUQ5 whole entry): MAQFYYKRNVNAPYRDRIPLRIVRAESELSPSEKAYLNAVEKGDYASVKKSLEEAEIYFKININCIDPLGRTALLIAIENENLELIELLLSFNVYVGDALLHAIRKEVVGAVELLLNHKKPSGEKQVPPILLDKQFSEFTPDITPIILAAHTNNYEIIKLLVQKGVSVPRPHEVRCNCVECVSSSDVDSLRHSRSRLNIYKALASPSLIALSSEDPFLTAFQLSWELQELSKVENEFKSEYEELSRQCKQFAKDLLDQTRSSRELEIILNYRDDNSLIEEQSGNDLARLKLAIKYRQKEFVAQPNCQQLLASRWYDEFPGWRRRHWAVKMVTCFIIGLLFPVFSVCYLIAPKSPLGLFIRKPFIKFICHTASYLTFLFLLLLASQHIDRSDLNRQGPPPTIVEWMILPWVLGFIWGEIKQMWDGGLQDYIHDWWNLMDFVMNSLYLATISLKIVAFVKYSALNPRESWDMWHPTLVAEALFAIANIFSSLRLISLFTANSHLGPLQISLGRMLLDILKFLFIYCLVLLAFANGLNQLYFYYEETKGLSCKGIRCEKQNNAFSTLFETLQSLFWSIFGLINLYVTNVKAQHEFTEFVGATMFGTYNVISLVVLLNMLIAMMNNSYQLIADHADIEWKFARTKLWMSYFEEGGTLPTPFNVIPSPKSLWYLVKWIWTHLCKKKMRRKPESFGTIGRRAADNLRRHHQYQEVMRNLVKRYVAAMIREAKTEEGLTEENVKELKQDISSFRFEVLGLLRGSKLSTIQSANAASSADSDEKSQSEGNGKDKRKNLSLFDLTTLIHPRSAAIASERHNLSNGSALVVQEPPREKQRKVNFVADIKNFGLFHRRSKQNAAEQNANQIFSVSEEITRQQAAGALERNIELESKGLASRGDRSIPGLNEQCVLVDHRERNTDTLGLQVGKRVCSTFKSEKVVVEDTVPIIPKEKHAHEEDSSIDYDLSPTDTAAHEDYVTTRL
Nature of the test: calcium entry via TRPC4 opening agents – cell-based, HEK293 TRPC4/mu-opioid, Fluo-4 calcium, dose response (AID 434937). The format is functional.

In test [12] the target is T3, High affinity choline transporter 1 (Homo sapiens, UniProt Q9GZV3).
T3 sequence (Q9GZV3 whole entry): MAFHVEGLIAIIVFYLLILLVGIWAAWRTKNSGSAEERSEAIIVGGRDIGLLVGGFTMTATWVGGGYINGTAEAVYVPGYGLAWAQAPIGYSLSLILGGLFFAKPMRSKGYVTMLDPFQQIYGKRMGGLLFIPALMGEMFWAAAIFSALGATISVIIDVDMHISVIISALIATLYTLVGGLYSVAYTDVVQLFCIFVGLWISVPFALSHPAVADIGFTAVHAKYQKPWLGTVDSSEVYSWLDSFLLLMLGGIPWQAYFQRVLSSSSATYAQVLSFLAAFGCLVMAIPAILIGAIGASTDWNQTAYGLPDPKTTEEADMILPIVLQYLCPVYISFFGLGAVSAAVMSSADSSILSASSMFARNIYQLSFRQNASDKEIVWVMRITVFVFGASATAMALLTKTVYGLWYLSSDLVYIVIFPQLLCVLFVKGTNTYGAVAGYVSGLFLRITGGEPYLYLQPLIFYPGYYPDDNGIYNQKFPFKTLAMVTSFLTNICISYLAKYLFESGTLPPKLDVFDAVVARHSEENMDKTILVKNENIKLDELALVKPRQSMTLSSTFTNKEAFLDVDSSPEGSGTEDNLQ
Nature of the test: human choline transporter blockers, potency – cell-based, 5-point CRC, membrane potential dye, dose response (AID 504840). Format: functional.

For test [13], the target named is T4, Corticotropin-releasing factor receptor 2/Corticotropin-releasing factor-binding protein (Homo sapiens, UniProt P24387+Q13324).
T4 sequence (Q13324 whole entry): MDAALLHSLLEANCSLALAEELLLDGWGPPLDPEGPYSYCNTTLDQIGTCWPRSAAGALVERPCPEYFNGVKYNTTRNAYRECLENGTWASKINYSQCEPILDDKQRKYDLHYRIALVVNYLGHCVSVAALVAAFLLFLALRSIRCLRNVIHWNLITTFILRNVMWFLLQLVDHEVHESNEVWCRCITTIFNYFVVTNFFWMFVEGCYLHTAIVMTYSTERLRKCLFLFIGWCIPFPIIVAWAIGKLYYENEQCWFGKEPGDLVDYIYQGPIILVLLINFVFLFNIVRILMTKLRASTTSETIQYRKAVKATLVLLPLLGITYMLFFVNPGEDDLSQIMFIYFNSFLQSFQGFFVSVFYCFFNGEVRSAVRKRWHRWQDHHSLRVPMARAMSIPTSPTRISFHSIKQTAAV
T4 sequence (P24387 whole entry): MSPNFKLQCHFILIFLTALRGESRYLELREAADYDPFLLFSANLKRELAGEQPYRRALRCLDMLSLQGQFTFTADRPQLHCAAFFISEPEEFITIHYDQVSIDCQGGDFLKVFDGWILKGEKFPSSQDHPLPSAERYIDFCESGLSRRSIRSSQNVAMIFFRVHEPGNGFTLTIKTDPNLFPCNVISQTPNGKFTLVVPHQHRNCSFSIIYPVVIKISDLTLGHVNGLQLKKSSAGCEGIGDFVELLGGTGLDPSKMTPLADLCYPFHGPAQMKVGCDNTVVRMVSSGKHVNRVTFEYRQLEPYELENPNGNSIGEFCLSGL
Nature of the test: activators of CRF receptor 2 with binding protein – uHTS hits, confirmation (AID 602473). Format: functional. As to conditions: read-out: EC50_Mean.

Test [14] concerns the target T5, Heat shock 70 kDa protein 1A (Homo sapiens, UniProt P0DMV8). Nature of the test: small-molecule inhibition of Hsp70 – biochemical, TR-FRET (AID 786). Background: In TR-FRET formats the signal depends on donor and acceptor labels being close together.
Test [15] deals with T1, Bcl-2-like protein 10. Description: Bcl-B/TR3 peptide binding disruption – biochemical, fluorescence polarization, FITC-TR3 peptide, selectivity assay for Bfl-1 inhibitor project, primary screen (AID 748). In general terms: Fluorescence polarisation rises when a labelled molecule tumbles more slowly, as on binding a larger partner.
The target in test [16] is T5, Heat shock 70 kDa protein 1A. Nature of the test: small molecules displacing fluorescent ligand from Hsp70 – biochemical, fluorescence polarization, primary screen (AID 583).
In test [17] the target is T6, Dual specificity protein phosphatase 6 (Rattus norvegicus, UniProt Q64346).
T6 sequence (Q64346 whole entry): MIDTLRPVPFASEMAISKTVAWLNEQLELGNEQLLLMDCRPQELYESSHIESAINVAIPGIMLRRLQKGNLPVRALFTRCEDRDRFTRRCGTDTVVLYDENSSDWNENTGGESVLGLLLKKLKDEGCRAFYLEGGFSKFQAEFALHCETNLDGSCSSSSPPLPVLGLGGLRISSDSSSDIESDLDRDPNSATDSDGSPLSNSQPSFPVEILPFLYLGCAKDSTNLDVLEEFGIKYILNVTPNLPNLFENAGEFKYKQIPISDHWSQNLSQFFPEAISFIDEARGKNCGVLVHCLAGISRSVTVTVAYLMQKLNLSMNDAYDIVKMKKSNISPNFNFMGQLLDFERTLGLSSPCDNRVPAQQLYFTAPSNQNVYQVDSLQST
Nature of the test: inhibition of rat DUSP6 enzyme activity – biochemical, in vitro, primary screen (AID 425).
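For AC50 in this document: cells exposed to compound for roughly 70 hours or longer before luminescence read.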

T5 sequence (P0DMV8 whole entry): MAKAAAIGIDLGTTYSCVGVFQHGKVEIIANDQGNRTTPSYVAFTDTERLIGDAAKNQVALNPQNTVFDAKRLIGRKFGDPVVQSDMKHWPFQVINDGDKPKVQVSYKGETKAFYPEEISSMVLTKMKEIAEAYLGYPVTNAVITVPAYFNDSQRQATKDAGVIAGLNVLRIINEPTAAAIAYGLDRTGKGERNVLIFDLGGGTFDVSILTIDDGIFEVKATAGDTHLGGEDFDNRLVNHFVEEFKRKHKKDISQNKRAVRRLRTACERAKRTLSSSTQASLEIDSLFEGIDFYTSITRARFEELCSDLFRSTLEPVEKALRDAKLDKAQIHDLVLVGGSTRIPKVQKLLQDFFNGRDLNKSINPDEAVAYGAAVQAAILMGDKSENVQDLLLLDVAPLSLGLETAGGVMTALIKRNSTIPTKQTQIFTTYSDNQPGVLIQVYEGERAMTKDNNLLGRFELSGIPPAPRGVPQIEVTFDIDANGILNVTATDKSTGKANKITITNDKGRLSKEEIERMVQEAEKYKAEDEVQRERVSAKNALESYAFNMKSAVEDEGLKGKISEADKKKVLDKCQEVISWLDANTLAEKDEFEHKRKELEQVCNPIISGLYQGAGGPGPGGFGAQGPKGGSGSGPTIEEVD
Chain of Mucolipin-3 (Q8TDD5 whole entry): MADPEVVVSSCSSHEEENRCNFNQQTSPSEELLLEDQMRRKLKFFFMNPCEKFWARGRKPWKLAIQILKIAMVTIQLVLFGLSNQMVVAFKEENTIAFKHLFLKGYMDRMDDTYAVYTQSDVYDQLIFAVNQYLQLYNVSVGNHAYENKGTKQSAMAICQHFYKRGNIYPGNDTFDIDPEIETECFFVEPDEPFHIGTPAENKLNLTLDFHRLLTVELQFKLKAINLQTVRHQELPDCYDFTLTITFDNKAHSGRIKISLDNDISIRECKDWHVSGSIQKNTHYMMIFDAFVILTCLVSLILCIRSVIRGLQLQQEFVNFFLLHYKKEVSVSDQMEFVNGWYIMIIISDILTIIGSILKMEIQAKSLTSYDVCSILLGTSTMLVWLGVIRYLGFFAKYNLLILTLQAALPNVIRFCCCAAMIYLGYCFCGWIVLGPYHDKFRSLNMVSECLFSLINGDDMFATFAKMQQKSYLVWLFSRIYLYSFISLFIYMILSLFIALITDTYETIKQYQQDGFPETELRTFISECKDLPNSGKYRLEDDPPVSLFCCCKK

`O=C(O)CCn1cc(/C=C/C(=O)c2ccc(Cl)cc2)c(-c2ccc(Br)cc2)n1`: the IC50 in test [1] was 22.7 µM (active). Moreover, the figures for the EC50 in test [2] and in test [3] were 15.9 µM (active) and 15.5 µM (active), respectively. Besides, the AC50 in test [4] was 5.62 µM (active).
On to `Cc1ccc(C)n1-c1ccc(Cl)cc1C(=O)O`, for which, in [5], the EC50 is 0.94 µM (active).
`Brc1ccc(-c2csc(N/N=C/c3ccco3)n2)cc1`: the EC50 in test [6], in test [7] and in [8] was > 79.4 µM (not active) in each case.
As to `O=C(NC(=S)NNC(=O)c1cccs1)c1ccc(Br)o1`, the EC50 is 5.99 µM (active) in test [9], 5.44 µM (active) in test [10], 5.31 µM (active) in test [11] and 12.2 µM (active) in [13]. The 50% inhibitory concentration (IC50) in test [12] is 28.8 µM (active).
As to `Cc1ccc(C)n1-c1cccc(C(=O)O)c1`, the half-maximal inhibitory concentration (IC50) is 18.5 µM (active) in test [14], 1.13 µM (active) in test [15], 48.3 µM (active) in test [16] and > 10 µM (not active) in test [17].

As a reminder, the IC50 is the concentration at which inhibition is half-maximal. For orientation: AC50 means the concentration at which the activity in the assay is half-maximal.
